Reference: patent US7705023B2, “Indoles useful in the treatment of inflammation” (Biolipox AB, priority 2005, dated 2010)

These compounds were tested against T1, human mPGES-1 (Homo sapiens, UniProt O14684) (assay: mPGES-1 biological test (conversion of PGH2 to PGE2, HPLC analysis)). Settings: human mPGES-1 expressed in E. coli, membrane fraction; 25 min preincubation with inhibitor, 60 s with PGH2, room temperature; read-out: concentration at which 50% inhibition of mPGES-1 was observed.
T1 construct: made in house; host or cells: E. coli
T1 sequence (O14684 1-152): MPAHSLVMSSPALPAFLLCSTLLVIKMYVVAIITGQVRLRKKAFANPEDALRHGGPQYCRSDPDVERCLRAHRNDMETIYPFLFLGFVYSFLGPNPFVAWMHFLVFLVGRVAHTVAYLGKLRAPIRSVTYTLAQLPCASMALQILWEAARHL
Format: biochemical
Procedure: In the assay human mPGES-1 catalyses the reaction where the substrate PGH2 is converted to PGE2. mPGES-1 is expressed in E. coli and the membrane fraction is dissolved in 20 mM NaPi-buffer pH 8.0 and stored at −80° C. In the assay human mPGES-1 is dissolved in 0.1 M KPi-buffer pH 7.35 with 2.5 mM glutathione. The stop solution consists of H2O/MeCN (7/3), containing FeCl2 (25 mM) and HCl (0.15 M). The assay is performed at room temperature in 96-well plates. Analysis of the amount of PGE2 is performed with reversed phase HPLC (Waters 2795 equipped with a 3.9×150 mm C18 column). The mobile phase consists of H2O/MeCN (7/3), containing TFA (0.056%), and absorbance is measured at 195-nm with a Waters 2487 UV-detector.
The following is added chronologically to each well: • 1. 100 μL human mPGES-1 in KPi-buffer with glutathione. Total protein concentration: 0.02 mg/mL. • 2. 1 μL inhibitor in DMSO. Incubation of the plate at room temperature for 25 minutes. • 3. 4 μL of a 0.25 mM PGH2, solution. Incubation of the plate at room temperature for 60 seconds. • 4. 100 μL stop solution. • 180 μL per sample is analyzed with HPLC.

SMILES | IC50
CC(C)Oc1ccc(-n2c(C(=O)O)cc3cc(-c4ccc(C(C)(C)C)cc4)ccc32)cc1 [Example 1, 5-(4-tert-Butylphenyl)-1-(4-isopropoxphenyl)-indole-2-carboxylic acid] | 62 nM
O=C(O)c1c(Cl)c2cc(-c3ccc(C(F)(F)F)cn3)ccc2n1-c1ccc(OC2CCCC2)nc1 [Example 36, 3-Chloro-1-(6-cyclopentoxypyrid-3-yl)-5-(5-trifluoromethylpyrid-2-yl)-1H-indole-2-carboxylic acid] | 1100 nM
CC(C)(C)c1ccc(-c2ccc3c(c2)cc(C(=O)O)n3-c2ccc(C3CCCCC3)cc2)cc1 [Example 64, 5-(4-tert-Butylphenyl)-1-(4-cyclohexylphenyl)-1H-indole-2-carboxylic acid] | 170 nM

Other lines, results leading:

IC50 | SMILES
610 nM | CC(C)Oc1ccc(-n2c(C(=O)O)cc3cc(-c4ccc(OC(C)C)nc4)ccc32)cc1 [Example 9]
390 nM | CC(C)Oc1ccc(-c2ccc3c(c2)c(Cl)c(C(=O)O)n3-c2ccc(OC(C)C)nc2)cc1 [Example 33, 3-Chloro-5-(4-isopropoxyphenyl)-1-(6-isopropoxypyrid-3-yl)indole-2-carboxylic acid]
